In patent US20220202948A1, “Agent for Eliminating Pluripotent Stem Cells” (Sumitomo Dainippon Pharma Co., Ltd., priority 2019, published 2022):
Square brackets hold non-standard residues; d marks the D form. Peptide text beside a SMILES is read from it. * marks the point of attachment. Dolaproine = CO[C@@H]([C@@H]1CCCN1)[C@@H](C)C(=O)O; Dil = CC[C@H](C)[C@H](NC)[C@@H](CC(=O)O)OC; X1 = C[C@@H](N*)[C@@H](O)c1ccccc1; NMeV = CN[C@H](C(=O)O)C(C)C

Legend:
porcine tubulin [1] = target: T1, porcine tubulin (Sus scrofa, UniProt P02550+P02554); test: Activity for inhibiting microtubule polymerization using porcine tubulins (1), tubulin polymerization inhibition assay kit; format: biochemical; settings: compound 0.91 μM, absorbance at 340 nm at 37° C., FIG. 1
T1 construct: purchased Cytoskeleton Inc. BK006P
T1 sequence (P02550 whole entry): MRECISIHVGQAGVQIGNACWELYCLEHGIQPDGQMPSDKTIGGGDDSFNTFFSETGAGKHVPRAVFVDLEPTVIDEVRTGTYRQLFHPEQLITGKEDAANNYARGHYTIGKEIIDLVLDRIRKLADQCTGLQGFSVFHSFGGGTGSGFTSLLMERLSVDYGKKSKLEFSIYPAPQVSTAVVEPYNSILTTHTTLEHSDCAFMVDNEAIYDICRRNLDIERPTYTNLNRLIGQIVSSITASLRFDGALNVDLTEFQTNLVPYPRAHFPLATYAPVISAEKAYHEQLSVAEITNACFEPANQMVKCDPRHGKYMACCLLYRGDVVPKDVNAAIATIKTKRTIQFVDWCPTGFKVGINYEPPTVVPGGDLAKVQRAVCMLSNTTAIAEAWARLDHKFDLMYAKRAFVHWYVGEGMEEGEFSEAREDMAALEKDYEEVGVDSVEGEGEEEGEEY
T1 sequence (P02554 whole entry): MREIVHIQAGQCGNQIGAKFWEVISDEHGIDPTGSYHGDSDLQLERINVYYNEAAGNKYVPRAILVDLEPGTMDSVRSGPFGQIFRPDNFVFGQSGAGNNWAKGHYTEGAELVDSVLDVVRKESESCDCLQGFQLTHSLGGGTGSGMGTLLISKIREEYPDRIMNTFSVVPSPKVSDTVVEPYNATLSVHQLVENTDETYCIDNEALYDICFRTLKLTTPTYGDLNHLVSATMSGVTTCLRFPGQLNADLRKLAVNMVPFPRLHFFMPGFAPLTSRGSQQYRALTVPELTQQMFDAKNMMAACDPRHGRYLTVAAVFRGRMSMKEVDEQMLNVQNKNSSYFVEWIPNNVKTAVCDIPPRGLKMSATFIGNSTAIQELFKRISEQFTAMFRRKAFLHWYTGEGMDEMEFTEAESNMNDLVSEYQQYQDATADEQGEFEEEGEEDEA
Protocol: (§1) Using a tubulin polymerization inhibition assay kit (catalog number: BK006P) purchased from Cytoskeleton Inc., the polymerization inhibitory activity of compounds of Examples with a concentration of 0.91 μM was evaluated in accordance with the protocol appended to the kit. In summary of the protocol, to a 96 well microplate, 80 mM PIPES pH 6.9, 2 mM MgCl, 0.5 mM EGTA and 5% DMSO buffered solution of the compound to be evaluated was added in an amount of 10 μL for each well, and to these wells, 3 mg/mL porcine tubulin 80 mM PIPES pH 6.9, 2 mM MgCl, 0.5 mM EGTA, 1 mM GTP and 10.2% glycerol solution was added in an amount of 100 μL for each well. In order to examine a state in which tubulins polymerize over time, the absorbance at 340 nm was measured at 37° C., using a microplate reader. As the polymerization of tubulins progresses, the absorbance at 340 nm rises.

[2] = Membrane permeability test, parallel artificial membrane permeability assay (PAMPA); format: in vitro ADME; settings: pH 7.4, 37° C.; for Papp at 4 h: read-out: permeability coefficient Pe (pH 7.4)
Protocol: By the parallel artificial membrane permeability assay (PAMPA), the membrane permeability of compounds of Examples was examined as follows: To the donor plate, System solution (pION inc.) and GIT Lipid-0 (pION inc.) were added in an amount of 200 μL and 4 μL for each well, respectively. To the acceptor plate, Acceptor Sink Buffer (pION inc.) was added in an amount of 200 μL. Both plates were superposed and incubated at 37° C. for 4 hours, and then, UVs in the solutions on the side of acceptor and on the side of donor were measured with a UV plate reader (190 to 500 nm). Compounds with poor UV absorption were measured by LC-MS. The permeability coefficient Pe (10^−6 cm/sec) of the drug was calculated by the following formula.

porcine tubulin [3] = target: T1, porcine tubulin; test: Activity for inhibiting microtubule polymerization using porcine tubulins (2), microtubule polymerization rate; format: biochemical; settings: compound 9.1 μM, 60 minutes after assay initiation, relative to wells without compound; lower = stronger inhibition
Protocol: as §1, with “Examples at” for “Examples with”, “of 9.1” for “of 0.91”, “kit. To” for “kit. In summary of the protocol, to”
The tubulin polymerization inhibitory activity was evaluated based on the proportion of polymerized tubulins 60 minutes after the assay initiation. Specifically, the microtubule polymerization rate (%) was calculated by dividing the absorbance of tubulins that had polymerized at wells to which the compound had been added by the absorbance of tubulins that had polymerized at wells to which the compound had not been added, and multiplying the obtained value by 100.

SMILES	activity for inhibiting microtubule polymerization (porcine tubulin [1])	Papp at 4 h [2] [×10⁻⁶ cm/s]	Microtubule polymerization rate (%) (porcine tubulin [3])	permeability coefficient Pe (pH 7.4) ([2]; 4 hours)
CN[C@H](C(=O)N[C@H](C(=O)N(C)[C@H](/C=C(\C)C(=O)N[C@H](CCC(=O)O)C(=O)O)C(C)C)C(C)(C)C)C(C)(C)c1cn(C)c2ccccc12 [Example 1, N,β,β-tetramethyl-L-tryptophyl-N-[(3S,4E)-6-{[(1R)-1,3-dicarboxypropyl]amino}-2,5-dimethyl-6-oxohex-4-en-3-yl]-N,3-dimethyl-L-valinamide]	comparable activities for inhibiting microtubule polymerization	< 0.1		
CN[C@H](C(=O)N[C@H](C(=O)N(C)[C@H](/C=C(\C)C(=O)N[C@H](CCC(=O)O)C(=O)O)C(C)C)C(C)(C)C)C(C)(C)c1ccccc1 [Example 2, N,β,β-Trimethyl-L-phenylalanyl-N-[(3S,4E)-6-{[(1R)-1,3-dicarboxypropyl]amino}-2,5-dimethyl-6-oxohex-4-en-3-yl]-N,3-dimethyl-L-valinamide]		< 0.1	2	
C/C(=C\[C@H](C(C)C)N(C)C(=O)[C@@H](NC(=O)[C@H]1CCCCN1C(C)C)C(C)(C)C)C(=O)N[C@H](CCC(=O)O)C(=O)O [Example 3, N-[(2E,4S)-2,5-Dimethyl-4-(methyl {3-methyl-N-[(2R)-1-(propan-2-yl)piperidine-2-carbonyl]-L-valyl}amino)hex-2-enoyl]-D-glutamic acid]		< 0.1	5	
CN[C@H](C(=O)N[C@H](C(=O)N(C)[C@H](/C=C(\C)C(=O)N[C@H](CC(=O)O)C(=O)O)C(C)C)C(C)(C)C)C(C)(C)c1cn(C)c2ccccc12 [Example 5]		< 0.1		
CN[C@H](C(=O)N[C@H](C(=O)N(C)[C@H](/C=C(\C)C(=O)N[C@@H](CCC(=O)O)C(=O)O)C(C)C)C(C)(C)C)C(C)(C)c1cn(C)c2ccccc12 [Example 6]		< 0.1	4	
CN[C@H](C(=O)N[C@H](C(=O)N(C)[C@H](/C=C(\C)C(=O)N[C@H](CCCCN)C(=O)O)C(C)C)C(C)(C)C)C(C)(C)c1cn(C)c2ccccc12 [Example 7]		0.8		
CN[C@H](C(=O)N[C@H](C(=O)N(C)[C@H](/C=C(\C)C(=O)N[C@@H](CCC(=O)O)C(=O)O)C(C)C)C(C)(C)C)C(C)(C)c1ccccc1 [Example 9]		< 0.1	5	
CN[C@H](C(=O)N[C@H](C(=O)N(C)[C@H](/C=C(\C)C(=O)N[C@H](CCC(=O)NCCN1C(=O)CC(SC[C@H](N)C(=O)O)C1=O)C(=O)O)C(C)C)C(C)(C)C)C(C)(C)c1ccccc1 (stereo partly drawn) [Example 37, (3S,6S,9S,10E,14R)-14-(3-{[2-(3-{[(2R)-2-Amino-2-carboxyethyl]sulfanyl}-2,5-dioxopyrrolidin-1-yl)ethyl]amino}-3-oxopropyl)-6-tert-butyl-8,11-dimethyl-4,7,12-trioxo-3-(2-phenylpropan-2-yl)-9-(propan-2-yl)-2,5,8,13-tetraazapentadec-10-en-15-oic acid]		0.2	9	
CN[C@H](C(=O)N[C@H](C(=O)N(C)[C@H](/C=C(\C)C(=O)NCCCC[C@@H](NC(=O)CCCN1C(=O)CC(SC[C@H](N)C(=O)O)C1=O)C(=O)O)C(C)C)C(C)(C)C)C(C)(C)c1cn(C)c2ccccc12 (stereo partly drawn) [Example 39]		1.4	2	
CN[C@H](C(=O)N[C@H](C(=O)N(C)[C@H](/C=C(\C)C(=O)N[C@H](CC(=O)NCCN1C(=O)CC(SC[C@H](N)C(=O)O)C1=O)C(=O)O)C(C)C)C(C)(C)C)C(C)(C)c1ccccc1 (stereo partly drawn) [Example 40]		3		
CN[C@H](C(=O)N[C@H](C(=O)N(C)[C@H](/C=C(\C)C(=O)N[C@@H](CC(=O)NCCN1C(=O)CC(SC[C@H](N)C(=O)O)C1=O)C(=O)O)C(C)C)C(C)(C)C)C(C)(C)c1ccccc1 (stereo partly drawn) [Example 41]		< 0.1		
CN[C@H](C(=O)N[C@H](C(=O)N(C)[C@H](/C=C(\C)C(=O)N[C@@H](CCC(=O)NCCN1C(=O)CC(SC[C@H](N)C(=O)O)C1=O)C(=O)O)C(C)C)C(C)(C)C)C(C)(C)c1ccccc1 (stereo partly drawn) [Example 42]		2.2	0	
CN[C@H](C(=O)N[C@H](C(=O)N(C)[C@H](/C=C(\C)C(=O)N[C@H](CCC(=O)O)C(=O)NCCN1C(=O)CC(SC[C@H](N)C(=O)O)C1=O)C(C)C)C(C)(C)C)C(C)(C)c1ccccc1 (stereo partly drawn) [Example 46]		3.5	0	
CN[C@H](C(=O)N[C@H](C(=O)N(C)[C@H](/C=C(\C)C(=O)N[C@H](CCC(=O)NCCCCN1C(=O)CC(SC[C@H](N)C(=O)O)C1=O)C(=O)O)C(C)C)C(C)(C)C)C(C)(C)c1ccccc1 (stereo partly drawn) [Example 48]		5.8	0	
CN[C@H](C(=O)N[C@H](C(=O)N(C)[C@H](/C=C(\C)C(=O)N[C@@H](CCC(=O)NCCN1C(=O)CC(SC[C@H](N)C(=O)O)C1=O)C(=O)O)C(C)C)C(C)(C)C)C(C)(C)c1cn(C)c2ccccc12 (stereo partly drawn) [Example 49]		< 0.1	0	
CN[C@H](C(=O)N[C@H](C(=O)N(C)[C@H](/C=C(\C)C(=O)N[C@H](CCC(=O)NCCCN1C(=O)CC(SC[C@H](N)C(=O)O)C1=O)C(=O)O)C(C)C)C(C)(C)C)C(C)(C)c1cn(C)c2ccccc12 (stereo partly drawn) [Example 54]		< 0.1	0	
CN[C@H](C(=O)N[C@H](C(=O)N(C)[C@H](/C=C(\C)C(=O)N[C@@H](CCCCNC(=O)CCCN1C(=O)CC(SC[C@H](N)C(=O)O)C1=O)C(=O)O)C(C)C)C(C)(C)C)C(C)(C)c1cn(C)c2ccccc12 (stereo partly drawn) [Example 57]		< 0.1		
CN[C@H](C(=O)N[C@H](C(=O)N(C)[C@H](/C=C(\C)C(=O)NCCCC[C@@H](NC(=O)CCCN1C(=O)CC(SC[C@H](N)C(=O)O)C1=O)C(=O)O)C(C)C)C(C)(C)C)C(C)(C)c1ccccc1 (stereo partly drawn) [Example 58]		3	0	
CN[C@H](C(=O)N[C@H](C(=O)N(C)[C@H](/C=C(\C)C(=O)O)C(C)C)C(C)(C)C)C(C)(C)c1cn(C)c2ccccc12 [Hemiasterlin, reference compound]	comparable activities for inhibiting microtubule polymerization	25.6	0	
CC[C@H](C)[C@@H]([C@@H](CC(=O)N1CCC[C@H]1[C@H](OC)[C@@H](C)C(=O)N[C@H](C)[C@@H](O)c1ccccc1)OC)N(C)C(=O)[C@@H](NC(=O)[C@@H](NC)C(C)C)C(C)C [MMAE, monomethyl auristatin, reference compound] (H-[NMeV]V[Dil][Dolaproine]-X1)	comparable activities for inhibiting microtubule polymerization			15.3 10^−6 cm/sec
